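Assay format: 96-well plates, 48-hour exposure. At the GI50, growth is halved. TGI: concentration producing complete growth inhibition.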
Columns and labels:
Experiment in all cases: growth of human tumour cells (NCI), 48 h
[1] = system: DU-145 prostate
[2] = system: MCF7 breast
[3] = system: MDA-MB-231 breast
[4] = system: NCI/ADR-RES ovarian
[5] = system: PC-3 prostate

Row | SMILES | GI50 [1] | TGI [1] | GI50 [2] | TGI [2] | GI50 [3] | TGI [3] | GI50 [4] | TGI [4] | GI50 [5] | TGI [5]
1 | COc1c2ccoc2c(/C=C/C=O)c2oc(-c3ccccc3)cc(=O)c12 | 10.7 µM | > 100 µM | 2.72 µM | 58.3 µM | 4.1 µM | > 100 µM | 3.01 µM | > 100 µM | 3.23 µM | > 100 µM
2 | CN(C)c1ccc(-c2cc(-c3ccc(Nc4nc(Nc5ccc(Cl)cc5)nc(Nc5ccc(Cl)cc5)n4)cc3)no2)cc1 | 3.86 µM | 16.4 µM | 2.46 µM | 10.7 µM | 9.66 µM | 37.7 µM | 5.38 µM | 88.6 µM |  | 
3 | C[C@@H](CS(C)(=O)=O)Nc1ncc2cc(Oc3ccc(F)cc3F)c(=O)n(C)c2n1 | > 25 µM | > 25 µM | > 25 µM | > 25 µM | > 25 µM | > 25 µM | > 25 µM | > 25 µM | > 25 µM | > 25 µM
4 | O=C(CCl)N1c2ccccc2Oc2ccc3ccccc3c21 | 1.17 µM | 2.53 µM |  |  | 1.28 µM | 2.81 µM | 2.36 µM | > 24 µM | 1.72 µM | 3.62 µM
5 | COc1cc2nc(-c3ccc(C(F)(F)F)cc3)cc(OCCCN3CCC(O)CC3)c2cc1OC | 4.96 µM | 20.4 µM | 2.57 µM | 18.2 µM | 0.919 µM | 15.6 µM | 0.847 µM | 22.7 µM | 3.66 µM | 19.5 µM
6 | COc1cc(C(=O)/C=C/c2sc(Cl)nc2Cl)cc(OC)c1OC | 1.8 µM | 3.21 µM | 1.78 µM | 3.68 µM | 1.65 µM | 3.07 µM | 1.97 µM | 4.07 µM | 1.8 µM | 3.7 µM
7 | NC(CSC(c1ccccc1)(c1ccccc1)c1ccc2c(c1)OCO2)C(=O)O (centres undefined) | 2.33 µM | 6.88 µM | 0.298 µM | 40.2 µM | 0.365 µM | 14.4 µM | 4.12 µM | 26.8 µM | 0.521 µM | > 69.6 µM
8 | O[C@H]1[C@H]2c3cc4c(cc3CN3CCC(=C[C@@H]1O)[C@H]23)OCO4 |  |  |  | 1.71 µM |  | 10.2 µM |  | 10.7 µM |  | 5.34 µM
9 | CC1=C(C#N)C23C(=O)c4ccccc4C(O)=C2C(=O)C=CC3(O)N1Cc1ccccc1 (centres undefined) | 35.1 µM | > 100 µM | 41.6 µM | > 100 µM | 44.4 µM | > 100 µM | 2.84 µM | 30.6 µM | 47 µM | > 100 µM
10 | O=C1c2cccnc2-c2nc(-c3ccccc3[N+](=O)[O-])cc3c2c1nc1ccccc13 | 14.9 µM | 33.3 µM | 3.25 µM | 15.4 µM | 3.89 µM | > 100 µM | 22.3 µM | > 69.3 µM | 19.5 µM | 69.1 µM
11 | Fc1ccc(Nc2ncnc3ccc(-c4cnc5[nH]ccc5c4)cc23)cc1Cl | 4.58 µM | > 93.3 µM | 0.335 µM | > 38 µM | 2.03 µM | 6.06 µM | 2.98 µM | > 87.8 µM | 3.54 µM | 27.3 µM
12 | CCOc1ccccc1-n1c(CN2CCN(C(=O)COc3ccc(CNCCCCCCN4C5CCCC4CC(OC(=O)Nc4cc(C)ccc4OC)C5)cc3)CC2)nc2ccccc2c1=O (centres undefined) | 1.8 µM | 3.49 µM | 0.75 µM | 2.06 µM | 0.815 µM | 2.13 µM | 7.04 µM | 19.6 µM | 1.59 µM | 3.61 µM
13 | COC(=O)Nc1nc2ccc(S(=O)c3ccccc3)cc2[nH]1 (centres undefined) | 31 µM | > 100 µM | 3.12 µM | > 100 µM | 7.45 µM | > 100 µM | 3.81 µM | > 100 µM | 6.75 µM | > 100 µM
14 | CNC(=O)c1ccccc1Nc1nc(Nc2ccc(N3CCOCC3)cc2OC)ncc1Cl | 0.768 µM | > 39.2 µM | 0.133 µM | > 50.7 µM | 1.09 µM | 5.26 µM | 1.11 µM | > 50.7 µM | 1.39 µM | > 66.9 µM
15 | CC(=O)[O][Hg][c]1c(N)c(C)cc(C)c1F | 2.39 µM | 7.14 µM | 0.665 µM | 2.99 µM | 1.17 µM | 2.64 µM | 3.48 µM | 23.6 µM | 2.03 µM | 6.61 µM
16 | COc1ccc(-c2cc(-c3ccc(Nc4nc(Nc5ccccc5)nc(Nc5ccc(Cl)cc5)n4)cc3)nc(N)c2C#N)cc1 | 2.41 µM | > 50 µM | 0.941 µM | > 50 µM | 1.01 µM | 2.46 µM | 3.66 µM | > 43.1 µM | 1.13 µM | 7.94 µM
17 | CSc1ccccc1C#C/C=C\C#Cc1ccccc1N1CCCC1=O | > 22.5 µM | > 50 µM |  | > 50 µM |  | > 50 µM |  | > 19.9 µM | > 50 µM | > 50 µM

Row | SMILES | GI50 [1] | TGI [1] | GI50 [2] | TGI [2] | GI50 [3] | TGI [3] | GI50 [4] | TGI [4] | GI50 [5] | TGI [5]
18 | O=C(CN1CCN(c2cc3c(cc2F)c(=O)c(C(=O)N/N=C/c2ccccc2O)cn3C2CC2)CC1)N/N=C\c1ccccc1O | 0.716 µM | > 100 µM | 0.398 µM | > 100 µM | 0.533 µM | > 69.3 µM | 0.91 µM | > 100 µM | 0.531 µM | > 100 µM
19 | Cc1cc(=O)[nH]c2cc3oc4ccccc4c3cc12 |  | > 100 µM |  | > 100 µM |  | > 100 µM |  | > 100 µM |  | > 100 µM
20 | Cc1cc(=O)n2[nH]c(-c3ccc(C(C)(C)C)cc3)cc2n1 | 11.4 µM | 75.9 µM | 7.43 µM | > 100 µM | 13 µM | > 100 µM | 15.9 µM | > 100 µM | 4.13 µM | 40.6 µM
21 | O=C(NCCNc1nccc(-c2c(-c3cccc(O)c3)nc3sccn23)n1)c1ccccc1O | 5.23 µM | 35.5 µM | 3.27 µM | 19.9 µM | 2.87 µM | 32 µM | 6.64 µM | 70.1 µM | 4.36 µM | 55.1 µM
22 | CCCCCCCC(=O)SCC/C=C/[C@@H]1CC(=O)NCc2cccc(n2)C2=N[C@@](C)(CS2)C(=O)N[C@@H](C(C)C)C(=O)N1 | 0.3 µM | > 33.3 µM | 0.623 µM | > 33.3 µM | 2.08 µM | > 33.3 µM | 31.7 µM | > 33.3 µM | 0.657 µM | > 33.3 µM
23 | COc1ccc2c(c1)C(=O)/C(=C/c1ccc(OCC(=O)Nc3nccs3)cc1)O2 | 0.504 µM | 5.73 µM | 5.75 µM | 18 µM | 0.748 µM | 5.78 µM | 27.3 µM | > 100 µM | 0.264 µM | 2.17 µM
24 | CC[C@@]12CCCN3CC[C@]4(c5cccc(OC)c5N(C(C)=O)[C@@H]4CC1)[C@H]32 |  | > 100 µM |  | > 100 µM |  | > 100 µM |  | > 100 µM |  | > 100 µM
25 | C=C(CNCCO)[C@@H]1CC[C@]2(CO)CC[C@]3(C)[C@H](CC[C@@H]4[C@@]5(C)CCC(N)C(C)(C)[C@@H]5CC[C@]43C)[C@@H]12 (some centres undefined) | 5.1 µM | 16.6 µM | 1.77 µM | 3.57 µM | 1.52 µM | 3.14 µM | 17 µM | 33.8 µM | 2.36 µM | 11.2 µM
26 | CC1=C(C(=O)Nc2ccc(F)c(Cl)c2)C(c2ccc(Cl)cc2)NC(=O)N1 (centres undefined) | 15.6 µM | 37 µM | 18.4 µM | 44.9 µM | 13.7 µM | 27.1 µM | 25.4 µM | 75.2 µM | 15.1 µM | 31.9 µM
27 | O=c1n(CC2CO2)c(=O)n(CC2CO2)n1CC1CO1 (centres undefined) | 3.58 µM | > 61.3 µM | 3.68 µM | > 100 µM | > 96.4 µM | > 100 µM | 19.5 µM | > 100 µM | 29.2 µM | > 100 µM
28 | O=C1/C(=C/c2ccc([N+](=O)[O-])cc2)COc2ccc(O)c(O)c21 | 1.46 µM | 2.85 µM |  |  | 1.33 µM | 2.81 µM | 2.66 µM | 9.33 µM | 1.59 µM | 4.53 µM
29 | COc1cc2c(c(OC)c1O)C(=O)C(OC)C(c1ccc(O)c(O)c1)O2 (centres undefined) | 0.374 µM | > 100 µM | 0.391 µM | > 100 µM | 0.554 µM | > 100 µM | 0.203 µM | > 100 µM | 0.599 µM | > 50.6 µM
30 | CCCCCCCCSC1=CC(=O)c2nc3ccccc3c3ccnc1c23 | > 100 µM | > 100 µM | 20.2 µM | 57.4 µM | 5.94 µM | > 100 µM | 97.4 µM | > 100 µM | 77.9 µM | > 100 µM
31 | O=C(O)c1cc(C(=O)O)cc(N2C(=O)c3ccccc3C2=O)c1 |  | > 100 µM |  | > 100 µM |  | > 100 µM |  | > 100 µM |  | > 100 µM
32 | CNC(=O)c1cc(Oc2ccc3nc(NC(=O)Nc4ccc(Cl)c(C(F)(F)F)c4)sc3c2)ccn1 |  |  |  |  | 1.43 µM | 4.29 µM |  |  |  | 
33 | c1cc2c(cc1NC1=NCCO1)CCC2 |  |  |  | > 10 µM |  |  |  |  |  | > 10 µM

Source: PubChem BioAssay (NCI)
